Our source for the IC50 and inhibition values is patent US20050014811A1, “Substituted benzimidazole compounds and their use for the treatment of cancer” (Aventis Pharma S.A., priority 2001, published 2005).

The target of test [1] is CDK4/CyclinD1 (Homo sapiens, UniProt P11802). Nature of the test: CDK4/CyclinD1 Flashplate assay, 96-well format, biotinylated-Rb peptide substrate. It is filed as biochemical. The method in brief:
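Biotinylated Rb peptide bound to streptavidin Flashplate; CDK4/CyclinD1 (70 ng/well) preincubated 30 min on ice with compound at 10, 3, 1, 0.3 and 0.1 μM final. Reaction with 1 μM cold ATP plus 33P-ATP for 45 min at RT; incorporated 33P counted, duplicates.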

For test [2], the target named is CDK2/CyclinE (Homo sapiens, UniProt P24941). The experiment in a line: CDK2/CyclinE Flashplate assay, 96-well format, biotinylated-Rb peptide substrate. It counts as biochemical. The procedure: This is a CDK2/CyclinE kinase assay in a 96-well Streptavidin-coated Flashplate with a biotinylated-Rb peptide substrate.
Each point is tested in duplicate
Biotinylated-Rb: Biotin-[…]-OH
• 1. Prepare substrate: 1 mg/ml solution made fresh in PBS. • 2. Add 4 μg per well to the Flashplate. • 3. Incubate for 2 hours at RT. • 4. From 10 mM inhibitor stocks in DMSO, make 1 mM, 300 μM, 100 μM, 30 μM and 10 μM series of dilution in DMSO. • 5. Was the Flashplate 3 times with 300 μl PBS to remove unbound peptide substrate. • 6. Add the CDK2/CyclinE kinase: 200 ng per well, in a volume of 90 μl in kinase buffer (except for “no enzyme” control wells). • 7. Add 1 μl per well of inhibitor to test 10 μM, 3 μM, 1 μM, 0.3 μM and 0.1 μM in final concentration per 100 μl in each well. • 8. Shake gently the Flashplate 1 minute. • 9. Incubate 30 minutes on wet ice. • 10. Initiate the reaction with 10 μl kinase buffer containing 1 μM final cold ATP and 1 μCi final ^33P-ATP per well. • 11. Shake gently the Flashplate 1 minute. • 12. Incubate 45 minutes at RT (no shaking). • 13. Wash the Flashplate 3 times with 300 μl PBS
14. Count to detect the incorporation of ^33P-ATP by the kinase to the Rb phosphorylation site.

pIC50: −log10 of the molar value.

In general, pIC50 refers to the negative decadic logarithm of the IC50, by convention in mol/L. Higher therefore signals a small IC50. By inhibition is commonly meant the relative decrease from the control value, in per cent.

Sequence of CDK4/CyclinD1 (P11802 whole entry, species assumed): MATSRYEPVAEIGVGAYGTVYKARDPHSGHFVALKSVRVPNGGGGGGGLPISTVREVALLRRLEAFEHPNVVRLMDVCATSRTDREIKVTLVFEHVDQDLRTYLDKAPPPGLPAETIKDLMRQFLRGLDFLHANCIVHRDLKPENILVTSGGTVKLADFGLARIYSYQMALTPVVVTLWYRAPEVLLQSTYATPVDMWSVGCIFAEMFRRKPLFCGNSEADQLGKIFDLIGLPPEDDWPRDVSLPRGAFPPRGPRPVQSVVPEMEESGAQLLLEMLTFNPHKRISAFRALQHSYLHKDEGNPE
Sequence of CDK4/CyclinD1 (P24385 whole entry partner, species assumed): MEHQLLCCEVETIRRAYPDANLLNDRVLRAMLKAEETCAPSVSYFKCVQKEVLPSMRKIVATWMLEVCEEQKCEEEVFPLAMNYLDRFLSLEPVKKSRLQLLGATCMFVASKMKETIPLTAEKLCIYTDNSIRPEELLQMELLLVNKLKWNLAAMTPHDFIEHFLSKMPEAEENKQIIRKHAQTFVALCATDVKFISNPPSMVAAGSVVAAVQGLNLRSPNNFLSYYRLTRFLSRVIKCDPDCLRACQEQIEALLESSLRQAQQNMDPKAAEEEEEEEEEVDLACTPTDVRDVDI

Consider `COC(=O)CCC(=O)Nc1nc2cc(OS(=O)(=O)c3ccc(NC4CCCC4)cc3)ccc2[nH]1` [Example 25, N-[5-(4-Cyclopentylamino-benzenesulfonyloxy)-1H-benzoimidazol-2-yl]-succinamic acid methyl ester], for which the pIC50 in test [1] is 6.89; in test [2] it was 7.10.

`O=C(NCC1CCNCC1)Nc1nc2cc(OS(=O)(=O)c3ccc(NC4CCCC4)cc3)ccc2[nH]1` [Example 58-u, 4-Cyclopentylamino-benzenesulfonic acid 2-(3-piperidin-4-ylmethyl-ureido)-1H-benzoimidazol-5-yl ester]: the pIC50 in test [1] is 6.54; in test [2], 8.00.

In the case of `O=C(Nc1cccc(F)c1)Nc1nc2cc(OS(=O)(=O)c3ccc(-n4ccnc4)cc3)ccc2[nH]1` [Example 57-d, 4-Imidazol-1-yl-benzenesulfonic acid 2-[3-(3-fluoro-phenyl)-ureido]-1H-benzoimidazol-5-yl ester], 10 µM produced 70% inhibition in test [1]. For the same compound, the pIC50 in test [2] is 6.30.

Regarding `CC(CO)NC(=O)Nc1nc2cc(OS(=O)(=O)c3ccc(NC4CCCC4)cc3)ccc2[nH]1` (stereo not shown) [Example 58-ak, 4-Cyclopentylamino-benzenesulfonic acid 2-[3-(2-hydroxy-1-methyl-ethyl)-ureido]-1H-benzoimidazol-5-yl ester], the results for the pIC50 in test [1] and in test [2] were 6.74 and 7.00, respectively.

In test [1], `O=C(Nc1cccc(F)c1)Nc1nc2cc(OS(=O)(=O)c3ccc(NC4CCCC4)cc3)ccc2[nH]1` [Example 58-d, 4-Cyclopentylamino-benzenesulfonic acid 2-[3-(3-fluoro-phenyl)-ureido]-1H-benzoimidazol-5-yl ester] displayed an inhibition at 10 µM of 84%. Also, the pIC50 in test [2] was 5.80.

Consider `O=C(NCCN1CCCC1)Nc1nc2cc(OS(=O)(=O)c3ccc(NC4CCCC4)cc3)ccc2[nH]1` [Example 58-ai, 4-Cyclopentylamino-benzenesulfonic acid 2-[3-(2-pyrrolidin-1-yl-ethyl)-ureido]-1H-benzoimidazol-5-yl ester], for which the pIC50 was 6.48 in test [1] and 6.82 in test [2].

In the case of `COc1cccc(NC(=O)Nc2nc3cc(OS(=O)(=O)c4ccc(NC5CCCC5)cc4)ccc3[nH]2)c1` [Example 38, 4-Cyclopentylamino-benzenesulfonic acid 2-[3-(3-methoxy-phenyl)-ureido]-1H-benzoimidazol-5-yl ester], the pIC50 in test [1] is 5.90; in test [2], 5.37.

`COC(=O)Nc1nc2cc(OS(=O)(=O)c3cccc(OC)c3)ccc2[nH]1` [Example 62-i, 3-Methoxy-benzenesulfonic acid 2-methoxycarbonylamino-1H-benzoimidazol-5-yl ester]: the pIC50 in test [1] was 5.82; in test [2], 6.00.

Regarding `CCNC(=O)Nc1nc2cc(OS(=O)(=O)c3ccc(NC4CCCC4)cc3)ccc2[nH]1` [Example 45, 4-Cyclopentylamino-benzenesulfonic acid 2-(3-ethyl-ureido)-1H-benzoimidazol-5-yl ester], the pIC50 in test [1] was 6.22; in test [2], 7.22.

`O=C(NCc1ccccc1Cl)Nc1nc2cc(OS(=O)(=O)c3ccc(-n4ccnc4)cc3)ccc2[nH]1` [Example 57-g, 4-Imidazol-1-yl-benzenesulfonic acid 2-[3-(2-chloro-benzyl)-ureido]-1H-benzoimidazol-5-yl ester]: in test [1], testing at 10 µM gave an inhibition of 52%. Also, the pIC50 in test [2] was 6.22.

As to `COC(=O)CNC(=O)Nc1nc2cc(OS(=O)(=O)c3ccc(NC4CCCC4)cc3)ccc2[nH]1` [Example 58-o, 4-{3-[5-(4-Cyclopentylamino-benzenesulfonyloxy)-1H-benzoimidazol-2-yl]-ureido}-acetic acid methyl ester], the pIC50 in test [1] was 7.54; in test [2], 7.70.

For `CCN1CCCC1CNC(=O)Nc1nc2cc(OS(=O)(=O)c3ccc(NCC4CCCO4)cc3)ccc2[nH]1` (stereo not shown) [Example 59-f, 4-[(Tetrahydro-furan-2-ylmethyl)-amino]-benzenesulfonic acid 2-[3-(1-ethyl-pyrrolidin-2-ylmethyl)-ureido]-1H-benzoimidazol-5-yl ester], the results for the pIC50 in test [1] and in test [2] were 5.74 and 7.22, respectively.

On to `O=C(NCCCCO)Nc1nc2cc(OS(=O)(=O)c3ccc(NC4CCCC4)cc3)ccc2[nH]1` [Example 58-ab, 4-Cyclopentylamino-benzenesulfonic acid 2-[3-(4-hydroxy-butyl)-ureido]-1H-benzoimidazol-5-yl ester], for which the pIC50 was 6.66 in test [1] and 8.70 in test [2].

For `CN1CCN(CCCNC(=O)Nc2nc3cc(OS(=O)(=O)c4ccc(NCC5CCCO5)cc4)ccc3[nH]2)CC1` (stereo not shown) [Example 59-m, 4-[(Tetrahydro-furan-2-ylmethyl)-amino]-benzenesulfonic acid 2-{3-[3-(4-methyl-piperazin-1-yl)-propyl]-ureido}-1H-benzoimidazol-5-yl ester], the results for the pIC50 in test [1] and in test [2] were 5.92 and 7.52, respectively.

`CNC(=O)Nc1nc2cc(OS(=O)(=O)c3ccc(-n4ccnc4)cc3)ccc2[nH]1` [Example 30, N-[5-(4-[imidazolyl]-phenylsulfonyloxy)-1H-benzimidazole-2-yl]-methylurea]: the results for the pIC50 in test [1] and in test [2] were 5.74 and 6.05, respectively.

Regarding `O=C(NCCOCCO)Nc1nc2cc(OS(=O)(=O)c3ccc(NC4CCCC4)cc3)ccc2[nH]1` [Example 58-af, 4-Cyclopentylamino-benzenesulfonic acid 2-{3-[2-(2-hydroxy-ethoxy)-ethyl]-ureido}-1H-benzoimidazol-5-yl ester], the pIC50 is 6.68 in test [1] and 6.74 in test [2].

Consider `O=C(Nc1nc2cc(OS(=O)(=O)c3ccc(NC4CCCC4)cc3)ccc2[nH]1)Nc1ccccc1F` [Example 37, 4-Cyclopentylamino-benzenesulfonic acid 2-[3-(2-fluoro-phenyl)-ureido]-1H-benzoimidazol-5-yl ester], for which the pIC50 in test [1] was 6.24; in test [2], 6.35.

For the compound `O=C(O)CNC(=O)Nc1nc2cc(OS(=O)(=O)c3ccc(NC4CCCC4)cc3)ccc2[nH]1` [Example 46, {3-[5-(4-Cyclopentylamino-benzenesulfonyloxy)-1H-benzoimidazol-2-yl]-ureido}-acetic acid], the pIC50 was 7.92 in test [1] and 7.22 in test [2].

In test [1], `O=C(Nc1ccc(F)cc1)Nc1nc2cc(OS(=O)(=O)c3ccc(NC4CCCC4)cc3)ccc2[nH]1` [Example 58-f, 4-Cyclopentylamino-benzenesulfonic acid 2-[3-(4-fluoro-phenyl)-ureido]-1H-benzoimidazol-5-yl ester] gave an inhibition at 10 µM of 91%. In test [2], the pIC50 is 6.15.

In the case of `CN(C)c1ccc(NC(=O)Nc2nc3cc(OS(=O)(=O)c4ccc(NC5CCCC5)cc4)ccc3[nH]2)cc1` [Example 49, 4-Cyclopentylamino-benzenesulfonic acid 2-[3-(4-dimethylamino-phenyl)-ureido]-1H-benzoimidazol-5-yl ester], in test [1], the inhibition at 10 µM was 88%. In test [2], this compound gave a pIC50 of 6.40.

Take `CN1CCN(CCCNC(=O)Nc2nc3cc(OS(=O)(=O)c4ccc(NC5CCCC5)cc4)ccc3[nH]2)CC1` [Example 58-k, 4-Cyclopentylamino-benzenesulfonic acid 2-{3-[3-(4-methyl-piperazin-1-yl)-propyl]-ureido}-1H-benzoimidazol-5-yl ester]: the pIC50 in test [1] is 6.30; in test [2], 7.40.

As to `O=C(NCCO)Nc1nc2cc(OS(=O)(=O)c3ccc(NC4CCCC4)cc3)ccc2[nH]1` [Example 58-e, 4-Cyclopentylamino-benzenesulfonic acid 2-[3-(2-hydroxy-ethyl)-ureido]-1H-benzoimidazol-5-yl ester], the pIC50 in test [1] is 7.00; in test [2], 7.40.

Turning to `CN1CCN(CCCNC(=O)Nc2nc3cc(OS(=O)(=O)c4ccc(-n5ccnc5)cc4)ccc3[nH]2)CC1` [Example 57-k, 4-Imidazol-1-yl-benzenesulfonic acid 2-{3-[3-(4-methyl-piperazin-1-yl)-propyl]-ureido}-1H-benzoimidazol-5-yl ester], the inhibition at 10 µM in test [1] came to 49%. This compound also showed a pIC50 in test [2] of 6.22.

As for `COC(=O)Nc1nc2cc(OS(=O)(=O)c3ccc(NCC4CCCO4)cc3)ccc2[nH]1` (stereo not shown) [Example 18, Methyl-5-(4-[1-tetrathydrofurylmethyl]aminophenyl-sulfonyloxy) benzimidazole-2-carbamate], the pIC50 in test [1] was 5.89; in test [2], 6.22.

Take `COC(=O)CCCNC(=O)Nc1nc2cc(OS(=O)(=O)c3ccc(NC4CCCC4)cc3)ccc2[nH]1` [Example 58-m, 4-{3-[5-(4-Cyclopentylamino-benzenesulfonyloxy)-1H-benzoimidazol-2-yl]-ureido}-butyric acid methyl ester]: the pIC50 is 6.62 in test [1] and 7.52 in test [2].

Turning to `O=C(NCc1ccccn1)Nc1nc2cc(OS(=O)(=O)c3ccc(NC4CCCC4)cc3)ccc2[nH]1` [Example 50, 4-Cyclopentylamino-benzenesulfonic acid 2-(3-pyridin-2-ylmethyl-ureido)-1H-benzoimidazol-5-yl ester], the pIC50 was 6.52 in test [1] and 7.40 in test [2].
